From patent publication US20210077592A1, “COMPOSITION TO PREVENT INTESTINAL DAMAGE” (FUSION FARM S.R.L. SEMPLIFICATA, priority 2017, published 2021)

Experiments:
Assay type in all cases: cell-based
Caco-2 cells [1] = experiment: Lucifer Yellow (LY) assay of paracellular permeability in Caco-2 intestinal damage model
Protocol: A protocol was developed based on Caco-2 cell inserts model (CACOREADY™ cells, lot no. 24 676 101716 and no. 24 680 111416, Readycell manufacturer) consisting in two steps:
1. Induction of epithelial damage (40 h incubation in glutamine free medium followed by stress induced by 60 mM ethanol for 4 h)
2. Evaluation of the single products first, and then applied in combination during stress induced by the absence of glutamine (60 h), and with subsequent stress induced by ethanol, to evaluate the efficacy in preventing damage. […]
Cells without damage induction (NC=without damage) and with damage induction (PC) were evaluated with the Lucifer Yellow (LY) assay, which verifies the integrity of the cellular junctions in presence of the test substance. […]
According to the experimental protocol, to evaluate the efficacy of the composition of the invention in damage prevention, sodium butyrate (2 mM concentration) and lactoferrin (400 μg/ml concentration), either alone or in combination, were applied on Caco-2 cells during stress induced by absence of glutamine, increasing the time of said deprivation, with respect to the conditions tested during the development of the model, and therefore of stress induction, to 60 hours, to make more evident differences in cells behavior in the different treatment situations. […] The parameters were evaluated at the end. […]

[2] = test system: Occludin and Zonula Occludens in Caco-2 cells; experiment: Fluorescence immunolabeling of Occludin and Zonula Occludens in Caco-2 cells after damage induction; conditions: pretreatment 60 h without glutamine, then 60 mM ethanol 4 h
Protocol: As it can be seen by FIG. 1, the damage induced an increase in permeability. The same cells without damage induction (NC) and with damage induction (PC), as indicated above, were further evaluated by fluorescence immunolabeling of Occludina and Zonula Occludens (proteins present in the intestinal membrane intracellular junctions).
(§1) According to the experimental protocol, to evaluate the efficacy of the composition of the invention in damage prevention, sodium butyrate (2 mM concentration) and lactoferrin (400 μg/ml concentration), either alone or in combination, were applied on Caco-2 cells during stress induced by absence of glutamine, increasing the time of said deprivation, with respect to the conditions tested during the development of the model, and therefore of stress induction, to 60 hours, to make more evident differences in cells behavior in the different treatment situations. At the end of 60 hours, the products were removed, and damage was induced for 4 h with 60 mM ethanol. The parameters were evaluated at the end.
To confirm the observed behavior, an evaluation using fluorescence immunolabeling of Occludin and Zonula Occludens was also performed.

Caco-2 cells [3] = experiment: Electron Microscopy (SEM) of microvilli of Caco-2 cells after damage induction; conditions: pretreatment 60 h without glutamine, then 60 mM ethanol 4 h, 750x-10000x
Protocol: The same cells without damage induction (NC) and with damage induction (PC), as indicated above, were finally evaluated by Electron Microscopy (SEM) at different magnifications.
as §1
The same cells were finally evaluated also by Electron Microscopy SEM, at various magnifications.

`CCCC(=O)[O-].[Na+]` [sodium butyrate, reference compound] was tested, and the “increase in LY flux (permeability)” value (Caco-2 cells [1]; 2 mM sodium butyrate alone during 60 h glutamine deprivation, then 60 mM ethanol 4 h) was “over 51%”, the “permeability (LY), result in words” value (Caco-2 cells [1]; treatment at the same time as damage induction) was “significant increase in permeability” and the “fluorescence intensity / expression of tight junction proteins (Occludin, Zonula Occludens), result in words” value [2] was “lower expression of the tight junctions' proteins”. The “effect on microvilli / villous atrophy by SEM, result in words” value (Caco-2 cells [3]) was “did not have any effect in combating the partial villous atrophy”.
